Measurements published in ChEMBL document CHEMBL2424562, “A comparative study of antimicrobial properties of cyclo(l-Pro- l-Asp) with its 2-ketopiperazine analog” (2013).
Converted amounts (≈) assume the structure as drawn.

Columns and labels:
Assay type in all cases: functional
[1] = tested on: Candida tropicalis; experiment: Antifungal activity against Candida tropicalis MTCC 184 at MIC after 48 hrs by disc diffusion method
[2] = tested on: Escherichia coli; experiment: Antibacterial activity against Escherichia coli MTCC 2622 after 24 hrs by two-fold dilution method; settings: MTCC 2622, 24 h
[3] = tested on: Candida albicans; experiment: Antifungal activity against Candida albicans MTCC 3017 at 37 degC after 48 hrs by microbroth dilution technique; settings: MTCC 3017, 48 h
[4] = tested on: Aspergillus niger; experiment: Antifungal activity against Aspergillus niger MTCC 277 at MIC after 48 hrs by disc diffusion method
[5] = tested on: Aspergillus fumigatus; experiment: Antifungal activity against Aspergillus fumigatus MTCC 3376 at 30 degC after 72 hrs by microbroth dilution technique; settings: MTCC 3376, 72 h
[6] = tested on: Staphylococcus epidermidis; experiment: Antibacterial activity against Staphylococcus epidermidis MTCC 435 at MIC after overnight incubation by disc diffusion method
[7] = tested on: Bacillus subtilis; experiment: Antibacterial activity against Bacillus subtilis MTCC 2756 at MIC after overnight incubation by disc diffusion method
[8] = tested on: Trichophyton rubrum; experiment: Antifungal activity against Trichophyton rubrum MTCC 296 at MIC after 48 hrs by disc diffusion method
[9] = tested on: Candida albicans; experiment: Antifungal activity against Candida albicans MTCC 3017 at MIC after 48 hrs by disc diffusion method
[10] = tested on: Penicillium expansum; experiment: Antifungal activity against Penicillium expansum MTCC 2006 at MIC after 48 hrs by disc diffusion method
[11] = tested on: Bacillus subtilis; experiment: Antibacterial activity against Bacillus subtilis MTCC 2756 after 24 hrs by two-fold dilution method; settings: MTCC 2756, 24 h
[12] = tested on: Escherichia coli; experiment: Antibacterial activity against Escherichia coli MTCC 2622 at MIC after overnight incubation by disc diffusion method
[13] = tested on: Trichophyton rubrum; experiment: Antifungal activity against Trichophyton rubrum MTCC 296 at 30 degC after 72 hrs by microbroth dilution technique; settings: MTCC 296, 72 h
[14] = tested on: Aspergillus tubingensis; experiment: Antifungal activity against Aspergillus tubingensis MTCC 2425 at 30 degC after 72 hrs by microbroth dilution technique; settings: MTCC 2425, 72 h
[15] = tested on: Aspergillus fumigatus; experiment: Antifungal activity against Aspergillus fumigatus MTCC 3376 at MIC after 48 hrs by disc diffusion method
[16] = tested on: Aspergillus flavus; experiment: Antifungal activity against Aspergillus flavus MTCC 183 at MIC after 48 hrs by disc diffusion method
[17] = tested on: Klebsiella pneumoniae; experiment: Antibacterial activity against Klebsiella pneumoniae MTCC 109 after 24 hrs by two-fold dilution method; settings: MTCC 109, 24 h
[18] = tested on: Staphylococcus epidermidis; experiment: Antibacterial activity against Staphylococcus epidermidis MTCC 435 after 24 hrs by two-fold dilution method; settings: MTCC 435, 24 h
[19] = tested on: Penicillium expansum; experiment: Antifungal activity against Penicillium expansum MTCC 2006 at 30 degC after 72 hrs by microbroth dilution technique; settings: MTCC 2006, 72 h
[20] = tested on: Aspergillus tubingensis; experiment: Antifungal activity against Aspergillus tubingensis MTCC 2425 at MIC after 48 hrs by disc diffusion method
[21] = tested on: Candida tropicalis; experiment: Antifungal activity against Candida tropicalis MTCC 184 at 37 degC after 48 hrs by microbroth dilution technique; settings: MTCC 184, 48 h
[22] = tested on: Aspergillus flavus; experiment: Antifungal activity against Aspergillus flavus MTCC 183 at 30 degC after 72 hrs by microbroth dilution technique; settings: MTCC 183, 72 h
[23] = tested on: Staphylococcus aureus; experiment: Antibacterial activity against Staphylococcus aureus MTCC 902 at MIC after overnight incubation by disc diffusion method
[24] = tested on: Pseudomonas aeruginosa; experiment: Antibacterial activity against Pseudomonas aeruginosa MTCC 2642 at MIC after overnight incubation by disc diffusion method
[25] = tested on: Aspergillus niger; experiment: Antifungal activity against Aspergillus niger MTCC 277 at 30 degC after 72 hrs by microbroth dilution technique; settings: MTCC 277, 72 h
[26] = tested on: Staphylococcus aureus; experiment: Antibacterial activity against Staphylococcus aureus MTCC 902 after 24 hrs by two-fold dilution method; settings: MTCC 902, 24 h
[27] = tested on: Klebsiella pneumoniae; experiment: Antibacterial activity against Klebsiella pneumoniae MTCC 109 at MIC after overnight incubation by disc diffusion method
[28] = tested on: Pseudomonas aeruginosa; experiment: Antibacterial activity against Pseudomonas aeruginosa MTCC 2642 after 24 hrs by two-fold dilution method; settings: MTCC 2642, 24 h
[29] = tested on: Penicillium expansum; experiment: Ratio of amphotericin B MIC to compound MIC for Penicillium expansum MTCC 2006

Row | MIC [3] | MIC [5] | MIC [13] | MIC [14] | MIC [19] | MIC [21] | Compound | diameter of the inhibition zone (DIZ) [1] | diameter of the inhibition zone (DIZ) [4] | diameter of the inhibition zone (DIZ) [6] | diameter of the inhibition zone (DIZ) [7] | diameter of the inhibition zone (DIZ) [8] | diameter of the inhibition zone (DIZ) [9] | diameter of the inhibition zone (DIZ) [10] | MIC [11] | diameter of the inhibition zone (DIZ) [12] | diameter of the inhibition zone (DIZ) [15] | diameter of the inhibition zone (DIZ) [16] | MIC [17] | MIC [18] | diameter of the inhibition zone (DIZ) [20] | also measured
1 | 8 µg/mL (≈ 37.7 µM) | 32 µg/mL (≈ 151 µM) | 2 µg/mL (≈ 9.42 µM) | 32 µg/mL (≈ 151 µM) | 8 µg/mL (≈ 37.7 µM) | 4 µg/mL (≈ 18.8 µM) | O=C(O)C[C@@H]1NC(=O)[C@@H]2CCCN2C1=O | 33 mm | 22 mm | 24 mm | 24 mm | 38 mm | 26 mm | 29 mm | 32 µg/mL (≈ 151 µM) | 26 mm | 23 mm | 28 mm | 8 µg/mL (≈ 37.7 µM) | 64 µg/mL (≈ 302 µM) | 25 mm | MIC [2]: 16 µg/mL (≈ 75.4 µM); Ratio [29]: 8; MIC [22]: 16 µg/mL (≈ 75.4 µM); diameter of the inhibition zone (DIZ) [23]: 21 mm; diameter of the inhibition zone (DIZ) [24]: 26 mm; MIC [25]: 16 µg/mL (≈ 75.4 µM); MIC [26]: 64 µg/mL (≈ 302 µM); diameter of the inhibition zone (DIZ) [27]: 31 mm; MIC [28]: 16 µg/mL (≈ 75.4 µM)
2 | 16 µg/mL (≈ 17.3 µM) | 16 µg/mL (≈ 17.3 µM) | 4 µg/mL (≈ 4.33 µM) | 64 µg/mL (≈ 69.3 µM) | 64 µg/mL (≈ 69.3 µM) | 8 µg/mL (≈ 8.66 µM) | C[C@@H]1[C@H](O)[C@@H](C)/C=C/C=C/C=C/C=C/C=C/C=C/C=C/[C@H](O[C@@H]2O[C@H](C)[C@@H](O)[C@H](N)[C@@H]2O)C[C@@H]2O[C@](O)(C[C@@H](O)C[C@@H](O)[C@H](O)CC[C@@H](O)C[C@@H](O)CC(=O)O[C@H]1C)C[C@H](O)[C@H]2C(=O)O [AMPHOTERICIN B] | 24 mm | 26 mm | – | – | 29 mm | 31 mm | 20 mm | – | – | 25 mm | 22 mm | – | – | 30 mm | MIC [22]: 16 µg/mL (≈ 17.3 µM); MIC [25]: 32 µg/mL (≈ 34.6 µM)
3 | – | – | – | – | – | – | O=C(O)c1cn(C2CC2)c2cc(N3CCNCC3)c(F)cc2c1=O [CIPROFLOXACIN] | – | – | 31 mm | 30 mm | – | – | – | 2 µg/mL (≈ 6.04 µM) | 32 mm | – | – | 0.5 µg/mL (≈ 1.51 µM) | 0.25 µg/mL (≈ 0.754 µM) | – | diameter of the inhibition zone (DIZ) [23]: 31 mm; diameter of the inhibition zone (DIZ) [24]: 33 mm; MIC [26]: 1 µg/mL (≈ 3.02 µM); diameter of the inhibition zone (DIZ) [27]: 33 mm; MIC [28]: 1 µg/mL (≈ 3.02 µM)

Row | Compound | MIC [3] | MIC [5] | MIC [13] | MIC [14] | MIC [19] | MIC [21] | diameter of the inhibition zone (DIZ) [1] | diameter of the inhibition zone (DIZ) [4] | diameter of the inhibition zone (DIZ) [6] | diameter of the inhibition zone (DIZ) [7] | diameter of the inhibition zone (DIZ) [8] | diameter of the inhibition zone (DIZ) [9] | diameter of the inhibition zone (DIZ) [10] | MIC [11] | diameter of the inhibition zone (DIZ) [12] | diameter of the inhibition zone (DIZ) [15] | diameter of the inhibition zone (DIZ) [16] | MIC [17] | MIC [18] | diameter of the inhibition zone (DIZ) [20] | also measured
4 | O=C(O)C[C@@H]1NC[C@@H]2CCCN2C1=O | 250 µg/mL (≈ 1260 µM) | 250 µg/mL (≈ 1260 µM) | 8 µg/mL (≈ 40.4 µM) | 125 µg/mL (≈ 631 µM) | 500 µg/mL (≈ 2520 µM) | 125 µg/mL (≈ 631 µM) | 14 mm | 19 mm | 23 mm | 15 mm | 28 mm | 15 mm | 13 mm | 125 µg/mL (≈ 631 µM) | 19 mm | 18 mm | 24 mm | 32 µg/mL (≈ 161 µM) | 64 µg/mL (≈ 323 µM) | 21 mm | MIC [2]: 64 µg/mL (≈ 323 µM); MIC [22]: 32 µg/mL (≈ 161 µM); diameter of the inhibition zone (DIZ) [23]: 16 mm; diameter of the inhibition zone (DIZ) [24]: 14 mm; MIC [25]: 64 µg/mL (≈ 323 µM); MIC [26]: 250 µg/mL (≈ 1260 µM); diameter of the inhibition zone (DIZ) [27]: 17 mm; MIC [28]: 125 µg/mL (≈ 631 µM)
